Source: patent publication US11154569B2, “Ruthenium μ-nitrido complexes and their use as calcium uptake inhibitors” (CORNELL UNIVERSITY, priority 2018, dated 2021)

Experiments:
[1] = target: T1, mitochondrial calcium uniporter (MCU) (Homo sapiens, UniProt Q8NE86); experiment: Cytoplasmic and mitochondrial Ca2+ dynamics in intact HeLa cells after histamine; type: cell-based; set-up: 30 min) and Rhod-2 AM; endogenous in cells; host or cells: HeLa (intact; some experiments with transfected Ca2+ sensors R-GECO1 and GCamP6-mt, MCU itself not transfected); conditions: for inhibition of MCU-mediated mCa2+ uptake in intact cells: intact HeLa cells, 50 μM for 30 minutes, histamine 100 μM, Rhod-2 AM and GCamP6-mt; for cytosolic calcium dynamics in intact cells: intact cells stimulated with histamine
T1 sequence (Q8NE86 51-351): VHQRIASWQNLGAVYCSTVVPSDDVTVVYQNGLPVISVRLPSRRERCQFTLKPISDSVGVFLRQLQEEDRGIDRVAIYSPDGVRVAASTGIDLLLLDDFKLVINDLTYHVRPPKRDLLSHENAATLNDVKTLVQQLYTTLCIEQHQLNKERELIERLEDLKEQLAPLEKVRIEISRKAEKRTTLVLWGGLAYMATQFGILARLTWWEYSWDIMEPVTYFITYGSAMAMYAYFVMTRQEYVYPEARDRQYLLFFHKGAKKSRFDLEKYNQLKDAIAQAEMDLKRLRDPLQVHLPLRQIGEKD
T1 sequence (Q9H4I9 48-107 partner limits assumed): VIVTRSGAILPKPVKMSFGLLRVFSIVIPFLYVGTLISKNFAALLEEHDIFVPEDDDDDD
Description: HeLa cells were loaded with Fluo-4-AM (5 μM; 30 min) and Rhod-2 AM (2 μM; 50 min) in extracellular medium as previously described (F. Perocchi et al, Nature 2010, 467, 291-296). Coverslips were mounted in an open perfusion microincubator at 37° C. and imaged. After 1 minute of baseline recording, histamine (100 μM) was added, and confocal images were recorded every 3 seconds at 488 and 561 nm excitation using a 40× oil objective. Images were analyzed and quantified by using ImageJ (NIH).
HeLa cells were transiently transfected with genetically encoded cytosolic and mitochondrial targeted Ca^2+ sensors R-GECO1 and GCamP6-mt plasmids. After 48 hours, the transfected cells were treated with MCU inhibitors (C1, C-2, and C-3; 50 μM). After 1 minute of baseline recording, histamine (100 μM) was added, and the change of R-GECO1 and GCamP6-mt fluorescence was measured with 488-nm and 561-nm excitation on a confocal microscope equipped with a 40× oil objective. Images were analyzed and quantified by using ImageJ (NIH).
Encouraged by the high cell permeability and mitochondrial selectivity of C-2, the capability of this complex to inhibit MCU-mediated mCa^2+ uptake in intact, non-permeabilized cells was investigated Briefly, HeLa cells were loaded with the cytosolic calcium concentration ([Ca^2+]) indicator Fluo-4 AM and the mitochondrial calcium concentration ([…]) indicator Rhod-2 AM in the presence or absence of C-1, C-2, and C-3 (50 μM). Cells were stimulated with the GPCR agonist histamine (100 μM) to rapidly elevate cCa^2+ levels to induce mCa^2+ uptake (Z. Dong et al., Mol. Cell 2017, 65, 1014-1028).
FIGS. 3A and 3B are graphs showing results of cytosolic ([Ca^2+]e, Fluo-4 AM) and mitochondrial ([Ca^2+]m, Rhod-2 AM) calcium transients in HeLa cells after treatment with histamine (100 μM) that were pretreated with or without C-1, C-2, or C-3 (50 μM) for 30 minutes. FIGS. 3C and 3D are graphs showing results of cytosolic ([Ca^2+]e, R-GECO) and mitochondrial ([Ca^2+]m, GCamP6-mt)) calcium transients in HeLa cells after treatment with histamine (100 μM) that were pretreated with or without C-1, C-2, or C-3 (50 μM) for 30 minutes. HeLa cells were co-transfected with R-GECO1 and GCamP6-mt. 48 hours post-transfection. Data are represented as mean±SEM. *p<0.05. n=3-6.

HeLa cells [2] = experiment: Mitochondrial accumulation of ruthenium in HeLa cells (mitochondrial isolation, GFAAS); conditions: 50 μM, 24 hours
Description: Approximately 1×10^6 HeLa cells were seeded in 75 cm^2 dishes and allowed to adhere overnight. The following day, the cell culture media was removed, and the cells were washed with 3 mL of PBS before treatment with media containing 50 μM of the complex. After 24 hours, the culture media was removed, and the cell monolayer was washed with 3 mL of PBS before the cells were harvested by trypsinization. The cell suspension was centrifuged, and the resulting pellet was resuspended in 3 ml, of PBS and centrifuged again to remove extracellular ruthenium. This washing step was repeated a total of three times. […] The ruthenium concentration in each sample was determined by GFAAS and was normalized to the protein content of the lysate, which was determined using the Bicinchoninic Acid Protein Assay Kit. […] Results were calculated as the mass ratio of total ruthenium to protein (pg/μg) in each sample±standard deviation of three independent trials. […]
To determine the abilities of the complexes to accumulate in the mitochondria, HeLa cells were treated with C-1, C-2 or C-3 (50 μM) in culture media for 24 hours, and the mitochondria were isolated following modified literature procedures (e.g., A. C. Komor et al., J. Am Chem. Soc. 2012, 134, 19223-19233). Both the mitochondrial and extramitochondrial fractions were analyzed for ruthenium content.

MTT cytotoxicity assay = type: cell-based, human; conditions: human; HEK293 cells, 72 hours incubation; read-out: IC50 (cytotoxicity, MTT)
Description: HEK293 (human embryonic kidney cells were obtained from American Type Culture Collection (ATCC, Washington D.C.) and cultured as adherent monolayers in a humidified 5% CO2 atmosphere at 37° C. in Minimum Essential Media supplemented with 10% fetal bovine serum (FBS) and 100 U/mL penicillin/streptomycin. HeLa cells were cultured in Dulbecco's Modified Eagle's Medium (DMEM) supplemented with 10% FBS and 100 U/mL penicillin/streptomycin. Cells were checked for contamination monthly using the PlasmoTest™ mycoplasma detection kit. Ventricular cardiomyocytes were isolated from neonatal rats (NRVMs) as previously described (H. M. Piper et al., Piper H. M. (eds), Cell Culture Techniques in Heart and Vessel Research, Springer Verlag: Berlin, 1990). The isolated myocytes were cultured in Ham's F-10 supplemented with 5%/o fetal bovine serum (FBS) and penicillin/streptomycin (100 U/ml) at 37° C. in a 95% air/5% CO2 humidified atmosphere for four days
Cells were seeded at 4000 cells/well in 100 μL/well in a 96-well plate and incubated for 24 hours. The media was removed and replaced with 200 μL of growth media containing varying concentrations of the complex. After 72 hours of incubation, the media was replaced with MEM containing 1 mg/mL of (4,5-dimethylthiazol-2-yl)-2,5-diepheyltetrazolium bromide (MTT). After four hours incubation, the media was removed and the purple formazan crystals were solubilized using 100 μL of a 8/1 DMSO/glycine buffer (pH 10) mixture. The absorbance at 570 nm was measured using a plate reader.
With the new nitrido-bridged ruthenium compounds C-2 and C-3 prepared, MCU-inhibitory properties of these compounds were evaluated and their activities compared to C-1, the oxo-bridged Ru360 analogue of the conventional art (S. R. Nathan et al., Inorg. Chem. 2017, 56, 3123-3126 and S. R. Nathan et al., J. Vis. Exp. 2017, 56527). The cytotoxicity of the complexes in HEK293 cells was first measured using the colorimetric thiazolyl blue tetrazolium bromide (MTT) assay, as well known in the art. […]

HeLa cells [3] = experiment: Whole cell uptake of ruthenium (GFAAS) in HeLa cells; type: cell-based; conditions: 50 μM, 24 hours

Row | Compound | inhibition of MCU-mediated mCa2+ uptake in intact cells [1] | concentration in the mitochondria compared to C-1 and C-3 (HeLa cells [2]) | CC50 at 72 h (MTT cytotoxicity assay) [µM] | cellular uptake relative to C-1 and C-3 (HeLa cells [3]) | inhibition of MCU-mediated mCa2+ uptake in intact cells ([1]; listed as Ru265) | cytosolic calcium dynamics in intact cells [1] | cytosolic calcium dynamics in intact cells ([1]; listed as Ru265)
1 | [Ru2(μ-N)(en)4Cl2]Cl3 [C-3] | did not show appreciable inhibition of mCa^2+ uptake |  |  |  |  |  | 
2 | N.N.N.N.N.N.N.N.[Cl-].[Cl-].[N-3].[Ru+4].[Ru+4] [C-2, [Ru2(μ-N)(NH3)8Cl2]Cl3] | significant inhibition of MCU-mediated mCa^2+ uptake | greater than three-fold higher concentrations | 195 ± 8 | twice as effectively as C-1 and C-3 | most effective MCU-inhibition in non-permeabilized cells | normal cytosolic calcium dynamics | without any effect on intracellular Ca^2+ dynamics
